Test results: EP1961762A1, “Inhibitors of protein phosphatase 1/GADD34, preparation and uses thereof” (Institut Gustave Roussy, priority 2007, dated 2008)
Entries after “also recorded” stand apart in the source; their conditions may differ.

Experiments:
CRT [1] = assay: Fluorescence detection of cell surface CRT on CT26 cells; type: cell-based, murine
Description: CT26 cells were cultured at 37°C under 5% CO2 in RPMI 1640 medium supplemented with 10% FCS, penicillin, streptomycin, 1 mM pyruvate and 10 mM HEPES in the presence of doxorubicin (DX; 24 h, 25 µM), mitoxantrone (Mitox; 24h, 1 µM, Sigma), idarubicin (24h, 1 µM, Aventis, France), mitomycin C (30 µM, 48 h; Sanofi-Synthelabo, France), and/or zVAD-fmk (50 µM, 24 h; Bachem), tunicamycin (24h, 65 µM), thapsigargin (24h, 30µM), brefeldin A (24h, 50 µM, Sigma), etoposide (48h, 25µM, Tava classics), MG132 (48h, 10 µM), ALLN (48h, […]), betulinic acid (24h, 10 µM), Hoechst 33343 (24h, 0,2µM), camptothecine (24h, 15 µM), lactacystin (48h, 60 µM), BAY 11-8072 (24h, 30µM), staurosporine (24h, 1.5 µM), bafilomycin A1 (48h, 300 nM), arsenic trioxide (24h, 30µM), C2-ceramide (C2-C; 24h, 60 µM,), calyculin A (48h, 30nM), or tautomycin (48h, nM, Sigma) and/or salubrinal (48h, µM, Calbiochem).
(§1) CT26 cells (on a glass slide or in 12-well plates) were first washed with FACS buffer (1× PBS, 5% fetus bovine serum, and 0.1% sodium azide) and then incubated with rabbit anti-mouse CRT antibody (1:100, Stressgen) in FACS buffer at 4 °C for 30 min. Cells reacted with anti-rabbit IgG (H+L) Alexa fluor 488-conjugates (1:500) in FACS buffer at 4 °C for 30 min. After washing three times with FACS buffer, surface CRT was detected by cytofluorometric analysis on a FACS Vantage. In some experiments, cells were fixed with 4% paraformaldehyde, counterstained with Hoechst (2µM; Sigma), followed by fluorescence microscopic assessment with a Leica IRE2 microscope equipped with a DC300F camera.

ERp57 [2] = assay: Flow cytometric detection of surface ERp57; type: cell-based
CT26 tumour cells = assay: Anti-tumour vaccination with dying treated CT26 tumour cells, challenge with live tumour cells; type: in vivo, BALB/c mice; settings: for immunogenic apoptosis / immunogenic cell death (protection against tumour growth): dying CT26 cells treated with the agent injected into one flank, live tumour cells into the opposite flank 8 days later
CT26 tumours [3] = assay: Intratumoural treatment of established CT26 tumours, immunocompetent mice
Description: (§2) All animals were maintained in specific pathogen-free conditions and all experiments followed the FELASA guidelines. […] Tumours were evaluated weekly, using a caliper. In a series of experiments, BALB/c (wild type or nu/nu) carrying palpable CT26 tumours (implanted 14 days before for wild type or 7 days before for nu/nu mice by injection of 10^6 tumour cells) received a single intratumoural injection of 100 µM PBS containing the same concentration of anti-cancer agents and PP1/GADD34 inhibitors as those used in vitro, as well as rCRT (15 µg).

CT26 tumours [4] = assay: Intratumoural treatment of established CT26 tumours, nu/nu mice
Description: as §2

MCA205, B16F10, J558 = assay: CRT exposure on murine tumour cell lines; type: cell-based
[5] = system: CRT, KDEL receptor and ERp57; assay: Double immunofluorescence staining of CRT, KDEL receptor and ERp57; type: cell-based; settings: HeLa cells, 1 µM, 2h
HeLa, A549, HCT116 = assay: CRT exposure on human tumour cell lines; type: cell-based
CRT [6] = assay: Cell surface CRT on enucleated CT26 cells (cytoplasts); type: cell-based, murine
Description: as §1
Trypsinized CT26 cells were enucleated as described in the publication of Andreau, K. et al. Contagious apoptosis facilitated by the HIV-1 envelope. Fusion-induced cell-to-cell transmission of a lethal signal. J. Cell Sci. 117, 5643-53 (2004). Briefly, cells were treated in 2 ml of complete RPMI medium containing cytochalasin B (10µg/ml; Sigma) and DNase I (80U/ml; Sigma). […] Then the cell surface CRT was detected (see materials and methods) and the viability was determined by with propidium iodine staining (2µg/ml, Sigma) for 5 min followed by cytofluorometric analysis. […] Phagocytosis was assessed by FACS analysis of double positive cells.

CT26 cells = assay: Phagocytosis of tumour cells by dendritic cells; type: cell-based, BALB/c mice; settings: within a few hours after treatment
Description: BM cells were flushed from the tibias and femurs of BALB/c mice with culture medium composed of RPMI 1640 medium (Invitrogen Life Technologies) supplemented with 10% heat-inactivated FBS (Invitrogen), sodium pyruvate, 50 µM 2-ME (Sigma), 10 mM HEPES (pH 7.4), and penicillin/streptomycin (Invitrogen). After one centrifugation, BM cells were resuspended in Tris-ammonium chloride for 2 min to lyse RBC. After one more centrifugation, BM cells (1 x 10^6 cells/ml) were cultured in medium supplemented with 100 ng/ml recombinant mouse FLT3 ligand (R&D systems) in 6-well plates (Costar Corning). After 7 days, the non-adherent and loosely adherent cells were harvested with Versene, washed and transferred in 12-well plates (1.5 x 10^6 cells/plate) for cocultures with tumour cells.
In 12-well plates, 25 x 10^6 adherent CT26 cells were labelled with Celltracker Green (Calbiochem) and then incubated with drugs. In some experiments viable CT26 were coated with 2µg/10^6 cells of chicken anti-CRT antibody (ABR affinity bioreagents) or an isotype control for 30 min prior to washing and feeding to dendritic cells Cs. Alternatively CT26 cells were coated with 2µg/10^6 cells of rCRT on ice for 30 min and washed twice prior to addition to dendritic cells. […] Phagocytosis was assessed by FACS analysis of double positive cells. […]

CRT and/or ERp57 = assay: Immunofluorescence staining of unfixed human tumour cell lines; type: cell-based; settings: variety of human tumour cell lines
ERP57 [7] = assay: Biotinylated surface proteins, 2D electrophoresis and mass spectroscopy; settings: short-term (4 h) treatment
CRT [8] = assay: as above; settings: short-term (4 h) treatment

| SMILES | CRT exposure (CRT [1]) | surface exposure of ERp57 (ERp57 [2]) | immunogenic cell death (CT26 tumour cells; mouse, in vivo) | immunogenic potential of cells succumbing to etoposide (CT26 tumour cells; mouse, in vivo) | therapeutic effect of single agent (CT26 tumours [3]; mouse, in vivo) | tumour response (CT26 tumours [3]; mouse, in vivo) | therapeutic effect of single agent (CT26 tumours [4]; mouse, in vivo) | CRT exposure (MCA205, B16F10, J558) | CRT exposure triggered by PP1 or GADD34 depletion (CRT [1]; siRNA knock-down, then mitoxantrone 2 h) | surface appearance of CRT, KDEL receptor and ERp57 [5] | CRT exposure (HeLa, A549, HCT116) | immunogenic apoptosis / immunogenic cell death (protection against tumour growth) (CT26 tumour cells) | time to CRT exposure in enucleated cells (cytoplasts) (CRT [6]) [h] | therapeutic effect of single agent (CT26 tumours [3]; single intratumoural injection, 14-day-old tumours) | phagocytosis of treated tumour cells by DC (CT26 cells) | therapeutic effect of single agent (CT26 tumours [4]; single intratumoural injection) | exposure of CRT and/or ERp57 on the cell surface (CRT and/or ERp57) | surface exposure of ERP57 (ERP57 [7]) | induction of surface CRT (factor) (CRT [8]; doxorubicin alone) | induction of surface CRT (factor) (CRT [8]; doxorubicin combined with Z-VAD-fmk) |
| --- | --- | --- | --- | --- | --- | --- | --- | --- | --- | --- | --- | --- | --- | --- | --- | --- | --- | --- | --- | --- |
| CO[C@H]([C@H](O)CC(=O)[C@@H](C)[C@@H](O)CC[C@@H](C)[C@@H]1O[C@]2(CC[C@@H](C)[C@H](CC[C@H](C)C(C)=O)O2)CC[C@@H]1C)[C@H](OC(=O)C[C@@H](O)C1=C(C)C(=O)OC1=O)C(C)C [tautomycin] | efficiently induced; also recorded: greatly enhanced | stimulates the surface exposure or ERp57 | not sufficient to induce immunogenic cell death | greatly enhanced | no major therapeutic effect | stable disease or complete tumour regression | no major therapeutic effect |  |  |  |  |  |  |  |  |  |  |  |  |  |
| O=C1c2c(O)ccc(O)c2C(=O)c2c(NCCNCCO)ccc(NCCNCCO)c21 [mitoxantrone] |  |  |  |  |  |  |  | induced CRT exposure | not further enhanced | appear together on the surface | induced CRT exposure | elicited immunogenic cell death | ≤ 1 | permanent regression in some but not all cases | acquired the property to be phagocytosed by DC quickly | no cure |  |  |  |  |
| COc1cccc2c1C(=O)c1c(O)c3c(c(O)c1C2=O)C[C@@](O)(C(=O)CO)C[C@@H]3O[C@H]1C[C@H](N)[C@H](O)[C@H](C)O1 [doxorubicin] |  |  |  |  |  |  |  |  |  |  |  | elicited immunogenic cell death |  |  | acquired the property to be phagocytosed by DC quickly |  | Very similar results | specifically induced | 6 | 1.8 |
